# Reference: article PMC7746546, “The JAK1 Selective Inhibitor ABT 317 Blocks Signaling Through Interferon-γ and Common γ Chain Cytokine Receptors to Reverse Autoimmune Diabetes in NOD Mice” (Frontiers in Immunology, 2020)
# What was measured:
# JAK1 over JAK2 = system: JAK1 over JAK2; parameters: method as in PMID 30806706, PMID 27390150; settings: cited from earlier work
# JAK1 over JAK3 = system: JAK1 over JAK3; parameters: method as in PMID 30806706, PMID 27390150; settings: cited from earlier work
# [1] = system: JAK2-dependent cytokines IL-3 and GM-CSF; settings: cited from earlier work
# [2] = system: IL-21 signaling in T cells; assay: IL-21-induced pSTAT3 in spleen T cells in vitro (flow cytometry); type: cell-based, mouse; settings: 0.05, 0.2, 1 and 2 µM, CD8+ and CD4+ T cells, Fig S2K-L
# Experimental: […] […] For use in vivo, 3 mg/kg or 10 mg/kg of drug was delivered twice daily by oral gavage in the vehicle 0.5% hydroxypropyl methylcellulose in sterile H2O. The JAK1/JAK2 inhibitor baricitinib was purchased from SelleckChem and used at a concentration of 3 mg/kg in vivo made up in a vehicle of 0.5% methyl cellulose.
# Single-cell suspensions from the spleens were prepared by mechanical tissue disruption through a 70 μm cell strainer followed by red cell lysis. Cells were resuspended in FACS buffer (0.5% FCS in PBS) and filtered through a nylon mesh.
# Whole islets were treated with vehicle or ABT 317 for 1 h before culture with 10 ng/ml IFN-γ for 72 h, and analysis by flow cytometry. Splenocytes and whole blood were stimulated with 100 U/ml IL-2, 50 ng/ml IL-7, 30 ng/ml IL-15, 25 ng/ml IL-21, or 40 ng/ml GM-CSF for 30 min at 37°C. Red blood cells were lysed (155 mmol/L NH4Cl, 10 mmol/L Tris-HCl, pH 7.5). Leukocytes were analyzed by flow cytometry.
# Mouse islet cells were stained with anti-CD45 and biotinylated anti-H2Kd (BD Pharmingen) followed by streptavidin-allophycocyanin (BioLegend). β‐cells were identified by autofluorescence ([23]). Dead cells were excluded using propidium iodide. […] Data were collected on the FACS Fortessa cell analyzer (BD Bioscience, San Jose, CA, USA) and were analyzed using FlowJo Software version 10 (TreeStar, Inc, Ashland, OR, USA).
# [3] = cited from earlier work
# [4] = parameters: method as in PMID 29481660; settings: participants with diabetic kidney disease, phase 2 trial; cited from earlier work
# [5] = system: IFN-γ mediated MHC class I upregulation on β cells; parameters: method as in PMID 28292965; settings: cited from earlier work
# [6] = system: autoimmune insulitis in NOD mice; parameters: method as in PMID 28292965; settings: cited from earlier work
structure (smiles),measurement,setting,value
CC[C@@H]1CN(C(=O)NCC(F)(F)F)C[C@@H]1c1cnc2cnc3[nH]ccc3n12 [upadacitinib],selectivity for JAK1 over JAK2,JAK1 over JAK2,74 fold
same,selectivity for JAK1 over JAK3,JAK1 over JAK3,58 fold
same,effect on JAK2-dependent cytokines IL-3 and GM-CSF,[1],inhibits
C[C@@H]1CCN(C(=O)CC#N)C[C@@H]1N(C)c1ncnc2[nH]ccc12 [tofacitinib],"blocking IL-21 signaling through pSTAT3, dose dependence",[2],similar
O=C(Nc1nc2cccc(-c3ccc(CN4CCS(=O)(=O)CC4)cc3)n2n1)C1CC1 [filgotinib],anemia,[3]; rheumatoid arthritis patients,did not result in anemia
CCS(=O)(=O)N1CC(CC#N)(n2cc(-c3ncnc4[nH]ccc34)cn2)C1 [baricitinib],"blocking IL-21 signaling through pSTAT3, dose dependence",[2],similar
same,neutropenia in clinical trials,[3],neutropenia has been found
same,albuminuria,[4],reduction
Cc1cc(Nc2nc(N[C@@H](C)c3ncc(F)cn3)ncc2Cl)n[nH]1 [AZD1480],IFN-γ mediated MHC class I upregulation on β cells,[5],blocked
same,established autoimmune insulitis,[6],reversed
same,immune cell infiltration into pancreatic islets,[6],reduced
